From US7572798B2, “Combi-molecules having signal transduction inhibitory properties and DNA damaging properties” (McGill University, priority 2001, dated 2009)
Several values for one entry are separate records, joined by “and”; a condition that tells them apart may be missing. Identical values can stand only once.

Assays:
[1] = target: T1, EGFR (Homo sapiens, UniProt P00533); assay: EGFR TK ELISA with PGT substrate (competitive binding at the ATP site); assay type: biochemical; design: purchased BIOMOL (Plymouth Meeting); also a gift from Pfizer Inc
T1 sequence (P00533 25-1210): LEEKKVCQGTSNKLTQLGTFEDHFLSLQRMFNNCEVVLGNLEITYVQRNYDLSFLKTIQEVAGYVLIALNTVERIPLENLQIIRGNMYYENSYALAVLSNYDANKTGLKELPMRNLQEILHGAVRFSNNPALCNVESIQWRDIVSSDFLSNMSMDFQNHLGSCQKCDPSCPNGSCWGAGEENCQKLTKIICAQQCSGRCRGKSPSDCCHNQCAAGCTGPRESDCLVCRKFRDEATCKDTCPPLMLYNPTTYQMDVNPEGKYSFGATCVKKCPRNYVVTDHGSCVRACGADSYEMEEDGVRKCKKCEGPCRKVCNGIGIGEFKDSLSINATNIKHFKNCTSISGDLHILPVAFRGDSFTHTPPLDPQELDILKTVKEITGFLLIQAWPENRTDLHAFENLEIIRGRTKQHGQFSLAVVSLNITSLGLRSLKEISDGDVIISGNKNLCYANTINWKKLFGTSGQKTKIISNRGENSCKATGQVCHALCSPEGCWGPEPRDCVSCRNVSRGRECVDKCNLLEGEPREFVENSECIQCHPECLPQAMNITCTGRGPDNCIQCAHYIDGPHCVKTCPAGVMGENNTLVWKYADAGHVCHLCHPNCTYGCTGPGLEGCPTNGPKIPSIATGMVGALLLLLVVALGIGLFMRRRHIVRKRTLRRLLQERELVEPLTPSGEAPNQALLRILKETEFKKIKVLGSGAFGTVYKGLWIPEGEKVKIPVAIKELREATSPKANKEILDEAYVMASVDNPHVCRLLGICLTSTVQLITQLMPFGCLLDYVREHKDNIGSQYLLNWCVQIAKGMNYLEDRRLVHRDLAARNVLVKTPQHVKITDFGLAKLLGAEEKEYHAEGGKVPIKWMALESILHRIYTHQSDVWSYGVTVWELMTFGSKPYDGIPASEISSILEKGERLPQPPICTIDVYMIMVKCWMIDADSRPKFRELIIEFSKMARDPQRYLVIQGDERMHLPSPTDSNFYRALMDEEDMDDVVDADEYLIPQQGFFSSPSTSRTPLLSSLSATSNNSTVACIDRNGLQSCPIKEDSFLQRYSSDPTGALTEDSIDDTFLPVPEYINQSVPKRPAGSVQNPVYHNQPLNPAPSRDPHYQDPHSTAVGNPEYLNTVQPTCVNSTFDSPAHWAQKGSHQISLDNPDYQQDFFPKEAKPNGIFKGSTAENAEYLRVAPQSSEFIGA
Procedure: The ability of the combi-molecules to block EGFR TK activity was determined by an ELISA assay using poly(L-glutamic acid-L-tyrosine, 4:1) PGT as a substrate and commercially available EGFR.
Nunc MaxiSorp 96-well plates were incubated overnight at 37° C. with 100μL per well of 0.25 mg/mL PGT in PBS. Excess PGT was removed and the plates were washed 3 times with Tween 20 (0.1%) in PBS. […] The compound was added and phosphorylation initiated by the addition of ATP (20 μM). After 8 min at room temperature with constant shaking, the reaction was terminated by the aspiration of the reaction mixture and by rinsing the plate 4 times with wash buffer (Tween 20 (0.1%) in PBS). […] Antibody was removed by aspiration, and the plates washed 4 times with wash buffer. The signals were developed by the addition of 50 μL per well of TMB peroxidase substrate (Kierkegaard and Perry Laboratories, Gaithersberg, Md.).
This assay is similar to the one previously described. Nunc MaxiSorp 96-well plates were incubated overnight at 37° C. with 100 μl/well of 25 ng/ml PGT in PBS. Excess PGT was removed and the plates were washed three times with wash buffer (Tween 20 (0.1%) in PBS). […] The compound was added and phosphorylation initiated by the addition of ATP (20 μM). After 8 min at room temperature with constant shaking, the reaction was terminated by aspirating the mixture and by rinsing the plates four times with wash buffer Tween 20 (0.1%) in PBS. […] Antibody was removed by aspiration, and the plate washed four times with wash buffer. The signals were developed by the addition of 50 μl/well of 3,3′,5,5′-tetramethylbenzidine (TMB) peroxidase substrate (Kierkegaard and Perry Laboratories, Gaithersberg, Md., USA).

[2] = system: A431 cells; assay: Alkaline comet assay for DNA damage in A431 cells; settings: for DNA damage (comet tail moment): A431, 30 min or 2 h exposure
Procedure: A431 cells were exposed to drugs for 30 min or 2 h, and harvested with trypsin-EDTA. The cells were subsequently collected by centrifugation and re-suspended in PBS. The resulting cell suspension was diluted to approximately 10^6 cells, and mixed with agarose (1%) in PBS at 37° C. in a 1:10 dilution. The gels were cast on Gelbond strips (Mandel Scientific, Guelph, Canada) using gel casting chambers, as previously described (32), then immediately placed into a lysis buffer [2.5 M NaCl, 0.1 M tetra-sodium EDTA, 10 mM tris-base, 1% (w/v) N-lauryl sarcosine, 10% (v/v) DMSO and 1% (v/v) Triton X-100]. After being kept on ice for 30 min, the gels were gently rinsed with distilled water and then immersed in a second lysis buffer [2.5 M NaCl, 0.1 M tetra-sodium EDTA, 10 mM tris-base], containing 1 mg/ml proteinase K for 60 min at 37° C. Thereafter, the gels were rinsed with distilled water, incubated in alkaline electrophoresis buffer for 30 min at 37° C., and electrophoresed at 300 mA for 60 min. The gels were subsequently rinsed with distilled water and placed into 1 M ammonium acetate for 30 min. They were further soaked in 100% ethanol for 2 h, dried overnight and subsequently stained with SYBR Gold ( 1/10000 dilution of stock supplied from Molecular Probes, OR) for 20 min. For evaluation of comets, DNA damage was assessed using the Tail Moment parameter (i.e. the product of the distance between the barycentres of the head and the tail of the comet. A minimum of 50 cell comets were analyzed for each sample using ALKOMET v3.1 software, and values are an average of tail moments for the entire cell population.
Cell suspensions were diluted to approximately 10^6 cells, and mixed with agarose (1%) in PBS at 37° C. in a 1:10 dilution. The gels were cast on Gelbond strips (Mandel Scientific, Guelph, Canada) using gel casting chambers, as previously described (31), and then immediately placed in a lysis buffer [2.5 M NaCl, 0.1 M tetra-sodium EDTA, 10 mM Tris-base, 1% (w/v) N-lauryl sarcosine, 10% (v/v) DMSO, and 1% (v/v) Triton X-100, pH 10.0]. After being kept on ice for 30 min, the gels were gently rinsed with distilled water and immersed in a second lysis buffer (2.5 M NaCl, 0.1 M tetrasodium EDTA, 10 mM Tris-base) containing 1 mg/ml proteinase K for 60 min at 37° C. Thereafter, the gels were rinsed with distilled water, incubated in alkaline electrophoresis buffer for 30 min at 37° C., and electrophoresed at 300 mA for 60 min. The gels were subsequently rinsed with distilled water and placed in 1 M ammonium acetate for 30 min. They were soaked in 100% ethanol for 2 h, dried overnight, and subsequently stained with SYBR Gold ( 1/10000 dilution of stock supplied from Molecular Probes, Eugene, Oreg.) for 20 min. Comets were visualized at 330× magnification and DNA damage was quantitated using the Tail Moment parameter (i.e., the distance between the barycenter of the head and the tail of the comet multiplied by the percentage of DNA within the tail of the comet). A minimum of 50 cell comets were analyzed for each sample, using ALKOMET version 3.1 image analysis software, and values are averages of tail moments for the entire cell population per sample.

[3] = system: A431 cells; assay: SRB growth inhibition assay in A431 cells; assay type: cell-based, human
Procedure: All growth inhibitory activities were evaluated using the SRB assay (33). Briefly, following drug treatment, cells were fixed using 50 μL of cold trichloroacetic acid (50%) for 60 min at 4° C., washed five times with tap water, and stained for 30 min at room temperature with SRB (0.4%) dissolved in acetic acid (0.5%). The plates were rinsed five times with 1% acetic acid and allowed to air dry. The resulting colored residue was dissolved in 200 μL of Tris base (10 mM), and the optical density read for each well at 540 nm using a Bio-Rad microplate reader (model 2550). […]
Cell monolayers were continuously exposed to different concentrations of each drug for 72 h. Under short exposure, they were treated with each drug for 2 h and allowed to recover for 72 h in drug-free medium.
To study the reversibility of the antiproliferative effects of our compounds, cells were grown to 70% confluence in 96-well plates and subsequently washed twice with PBS, after which they were exposed to serum-free medium for 18 h. Under continuous exposure, the cells were exposed to different concentrations of each drug for 120 h. Under short exposure, they were exposed to each drug for 2 h, after which they were allowed to recover for 120 h in drug free medium. Growth inhibitory activities were evaluated using the SRB assay as described above.

[4] = target: T2, human c-src (Homo sapiens, UniProt P12931); assay: c-src kinase ELISA; assay type: biochemical; settings: 1-100 μM range
T2 construct: purchased Upstate NY; host or cells: Baculovirus expression
T2 sequence (P12931 whole entry): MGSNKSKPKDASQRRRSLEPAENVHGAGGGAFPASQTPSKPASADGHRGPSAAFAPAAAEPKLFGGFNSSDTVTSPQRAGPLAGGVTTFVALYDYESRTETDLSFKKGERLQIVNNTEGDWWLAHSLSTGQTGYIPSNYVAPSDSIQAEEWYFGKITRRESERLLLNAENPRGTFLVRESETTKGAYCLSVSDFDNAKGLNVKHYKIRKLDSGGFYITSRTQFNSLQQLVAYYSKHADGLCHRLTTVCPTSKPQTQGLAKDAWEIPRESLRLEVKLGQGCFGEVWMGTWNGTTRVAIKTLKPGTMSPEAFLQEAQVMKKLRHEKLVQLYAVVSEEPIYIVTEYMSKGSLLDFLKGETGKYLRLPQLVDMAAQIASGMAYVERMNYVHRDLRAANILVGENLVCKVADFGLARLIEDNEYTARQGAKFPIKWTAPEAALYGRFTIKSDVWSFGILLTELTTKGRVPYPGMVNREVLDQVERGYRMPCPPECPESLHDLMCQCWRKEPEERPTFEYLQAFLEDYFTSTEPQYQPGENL
Procedure: (§1) Conditions for the c-src and insulin kinase assays were similar to those of the EGFR kinase assay, with the exception of the addition of 1 mM manganese chloride to the assay buffer, and a final ATP concentration of 100 μM. The reaction was terminated by the addition of 50 μl of a 250 mM solution of EDTA prior to aspiration.

[5] = target: T1, EGFR; assay: Reverse EGFR autophosphorylation (reversibility) assay in A431 cells; assay type: cell-based; settings: A431, 30 μM, 90 min
Procedure: To test this hypothesis, the reversibility assay (40, 41) was used, according to which the cells are treated with the drug for 90 min after which the culture medium is repeatedly removed and replaced 3 times, followed by the measurement of EGFR autophosphorylation.
A431 cells were grown to confluence in 6-well plates and then incubated in serum-free medium for 18 h (41). Duplicate sets of cells were then treated with 30 μM of each compound for 90 min. One set of cells was then stimulated with EGF (100 ng/ml) for 10 min and extracts were made as described under the Western blotting procedure above. The other set of cells was washed free of each compound with warmed serum-free media and incubated for 2 h. Thereafter, the cells were washed, incubated for another 2 h, washed again, and then incubated for a further 4 h. This set of cells was then stimulated with EGF and extracts were prepared as for the first set.

[6] = system: NIH3T3HER14 cells; assay: Growth factor-stimulated proliferation in NIH3T3HER14 cells (SRB); assay type: cell-based, mouse; settings: NIH3T3HER14, 72 h
Procedure: To study the effect of our compounds on growth factors stimulated proliferation, cells were grown to 70% confluence in 48-well plates and washed twice with PBS, after which they were exposed to serum-free medium for 18 h. The cells were then exposed to each drug and growth factors (EGF, TGFα, PDGF or serum) for 72 h and cell growth measured using the sulforhodamine B (SRB) assay (33). Briefly, following drug treatment, cells were fixed using 50 μl of cold trichloroacetic acid (50%) for 60 min at 4° C., washed five times with tap water, and stained for 30 min at room temperature with SRB (0.4%) dissolved in acetic acid (0.5%). The plates were rinsed five times with 1% acetic acid and allowed to air dry. […] Each point represents the average of at least two independent experiments run in triplicate.

[7] = target: T3, cytoplasmic domain of the insulin receptor β subunit (Homo sapiens, UniProt P06213); assay: insulin receptor kinase ELISA; assay type: biochemical; settings: 1-100 μM range
T3 construct: Baculovirus-expressed cytoplasmic domain of the insulin receptor β subunit; purchased Biomol Research laboratories Inc., USA; host or cells: Baculovirus expression
T3 sequence (P06213 980-1382 limits assumed): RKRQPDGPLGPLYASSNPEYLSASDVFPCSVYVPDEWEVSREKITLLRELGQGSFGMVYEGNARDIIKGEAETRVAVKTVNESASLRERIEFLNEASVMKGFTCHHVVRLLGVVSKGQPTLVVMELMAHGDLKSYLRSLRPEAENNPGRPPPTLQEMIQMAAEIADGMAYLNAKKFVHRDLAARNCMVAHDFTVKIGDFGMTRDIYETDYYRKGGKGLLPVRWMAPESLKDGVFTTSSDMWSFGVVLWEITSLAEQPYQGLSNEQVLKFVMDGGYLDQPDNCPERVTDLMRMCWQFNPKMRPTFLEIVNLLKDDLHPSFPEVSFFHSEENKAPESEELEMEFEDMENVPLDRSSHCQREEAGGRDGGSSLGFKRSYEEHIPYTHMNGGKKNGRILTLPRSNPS
Procedure: as §1

[8] = system: A431 cells; assay: SRB growth inhibition assay in A431 cells; assay type: cell-based; settings: Homo sapiens, A-431, 96 h, read-out: IC50 growth inhibition
[9] = system: A431 cells; assay: Colony forming (clonogenic) assay in A431 cells; settings: Homo sapiens, A-431, 144 h, read-out: IC50 colony formation
[10] = target: T1, EGFR; assay: cell-based
Procedure: The inhibition of receptor autophosphorylation in viable cells was determined by anti-phosphotyrosine Western Blots. A431 cells were pre-incubated overnight for 24 h at 37° C. in a 6-well plate (1×10^6) with 0.1% serum, after which they were exposed to a range of doses for each drug for 2 h and subsequently treated with 50 ng/mL EGF for 30 min at 37° C. The cells were thereafter washed with PBS and re-suspended in cold lysis buffer [50 mM Tris-HCl pH 7.5; 150 mM NaCl; 1% NP40, 1 mM EDTA; 5 mM NaF; 1 mM Na3VO4; protease inhibitor tablet (Roche Biochemicals, Laval, Canada)]. The lysates were kept on ice for 30 min and collected by centrifugation at 10 000 rpm for 20 min at 4° C. The protein concentrations were determined against a standardized control using the Bio-Rad protein assay kit (Bio-Rad Laboratories, Hercules, Calif.). […] Non-specific binding on the PVDF membrane was minimized with a blocking buffer containing nonfat dry milk (3%) in PBS. The membrane was blotted with primary antibodies [either antiphosphotyrosine antibody (UBI, Lake Placid, N.Y.) for the detection of phosphotyrosine, or anti-EGFR (Neomarkers, Fremont, Calif.) for the determination of corresponding receptor levels], and anti-β-tubulin (Neomarkers, Fremont, Calif.) for the detection of equal loading. Thereafter, blots were incubated with HRP-goat anti-mouse antibody (1:200 dilution; Bio-Rad Laboratories, Hercules, Calif.) and the bands visualized with an enhanced chemiluminescence system (Amersham Pharmacia Biotech, Buckinghamshire, UK). Band intensities were measured using the SynGene GeneTools software package (Cambridge, UK).
The inhibition of receptor autophosphorylation in viable cells was determined by anti-phosphotyrosine Western Blots. […] Protein concentrations were determined against a standardized control using the Bio-Rad protein assay kit (Bio-Rad Laboratories, Hercules, Calif.). […] Band intensities were measured using the SynGene GeneTools software package (Cambridge, UK).

[11] = system: NIH3T3 and NIH3T3HER14 cells; assay: MTT cytotoxicity assay in NIH3T3 / NIH3T3HER14; assay type: cell-based, mouse
Procedure: The cytotoxic effects of our compounds were evaluated using the 3-(4,5-dimethylthiazo-2-yl)-2,5-diphenyltetrazolium bromide (MTT) assay (42) with minor modifications. Briefly, cells were grown in 24-well plates and then exposed to the compounds for 96 h. MTT (50μl) of (5 mg/ml in sterile PBS) was added to 500 μl of media and the plates were incubated for 2-3 h at 37° C. […] Each point represents the average of at least two independent experiments run in duplicate.

[12] = Degradation in serum-containing cell culture medium (UV, HPLC); assay type: in vitro ADME; settings: bovine, serum-containing cell culture medium (RPMI with 10% serum); RPMI with 10% serum, 37° C.; read-out: half-life (t1/2) by UV spectrophotometry at 340 nm
Procedure: Thereafter, proteins were precipitated by the addition of acetonitrile (3.5 ml) and the supernatant collected by centrifugation. […] The operating mode was isocratic and two solutions, “A” (50% acetonitrile) and “B” (50% water), were used with a 0.5 ml/min flow rate and a 5 μL injection volume. […] For the rapid quantitation of metabolite, a less polar acetonitrile-water (70:30) eluent was used.
The half-life was estimated by a one-phase exponential decay curve-fit method using the GraphPad software package (GraphPad Software, Inc., San Diego, Calif.).
The half-life of BJ2000 under physiological conditions was studied by UV-spectrophotometry. BJ2000 was dissolved in a minimum volume of DMSO, diluted with RPMI-1640 supplemented with 10% FBS, and absorbencies read at 340 nm in a UV cell maintained at 37° C. with a circulating water bath. The half-life was estimated by a one-phase exponential decay curve-fit method, using the GraphPad software package (GraphPad software, Inc., San Diego, Calif., USA).
Proteins were thereafter precipitated by the addition of acetonitrile (3.5 ml), and the supernatant collected by centrifugation. […] HPLC analyses were performed on a Hewlett Packard 1090 liquid chromatograph, using a Waters C4 15-μm 300×3.9-mm reverse phase column to characterize and quantitate the products resulting from the degradation of BJ2000. […] The peaks were detected at 250 nm.

[13] = target: T3, cytoplasmic domain of the insulin receptor β subunit; settings: read-out: IC50 insulin receptor (positive control); cited from earlier work
[14] = Homo sapiens, A-431, read-out: IC50 growth inhibition
[15] = ELISA, PGT substrate, purified EGFR, ATP 20 μM, 8 min, read-out: IC50, inhibition of EGFR TK (competitive binding at ATP site)
[16] = Homo sapiens, A-431, 72 h, 72 h continuous exposure, SRB, A431, read-out: IC50 growth inhibition

## COCCNN=Nc1ccc2ncnc(Nc3cccc(Br)c3)c2c1 [D R1=MeOCH2CH2—]
[1]; Table 1, means and SE's of two separate experiments, read-out: IC50 (μM), inhibition of EGFR tyrosine kinase activity
  IC50: 0.071 ± 0.029 µM

## Cc1cccc(Nc2ncnc3ccc(N(C)C(=O)NCCCl)cc23)c1
other
  melting point: 150 to 151 °C (dec.)

## Nc1ccc2ncnc(Nc3cccc(Cl)c3)c2c1 [FD105]
[2]
  DNA damage (comet tail moment): non-DNA damaging agent
[3]; [14]
  IC50: > 100 µM
[4]
  effect on c-src TK activity: did not block c-src TK activity
[5]
  EGF-dependent EGFR autophosphorylation immediately after drug exposure: completely suppressed
[6]; EGF or TGFα-induced proliferation
  concentration giving 100% growth inhibition: 1 µM
[6]; PDGF-stimulated growth
  concentration giving 100% inhibition: approximately 30 μM
[7]
  effect on insulin receptor TK: nor did it exert any effect on insulin receptor TK

## Cc1cccc(Nc2ncnc3ccc(N(C)C(=O)N(CCCl)N=O)cc23)c1 [FD137, N-(2-Chloroethyl)-N′-methyl-N′-(4-m-tolylaminoquinazolin-6-yl)-N-nitrosourea]
[2]; A431
  level of DNA lesions compared with BCNU: lower levels of DNA lesions than BCNU
[2]
  DNA damage (comet tail moment): dose-dependent increase in DNA single strand breaks
[3]
  fold more potent than BCNU: 50 fold
other
  melting point: 150 to 151 °C (dec.)
[8]
  IC50: 0.8 µM

## Cc1cccc(Nc2ncnc3ccc(N)cc23)c1 [SMA52, 6-amino-4-[(m-tolyl)amino]quinazoline]
[2]
  DNA damage (comet tail moment): does not possess DNA damaging properties
[3]; Homo sapiens, A-431, 72 h, read-out: IC50 growth inhibition
  IC50: 59 µM
[3]; [14]
  IC50: > 100 µM
[1]
  IC50: 1.02 µM
[1]; [15]
  IC50: 1 µM
[9]
  IC50: 3.7 µM
[10]
  IC50: 8.44 µM

## Cn1nnc2c(C(N)=O)ncn2c1=O [TEM, temozolomide, reference compound]
[11]
  fold greater cytotoxic activity in EGFR transfectant NIH3T3HER14 than in parental NIH3T3: no differential cytotoxicity
[3]; 2 h + 72 h recovery and 72 h continuous, A431
  antiproliferative activity under short and continuous exposure: inactive
[3]; [16]
  IC50: 366 µM
[1]; [15]
  IC50: > 100 µM
[10]
  IC50: > 100 µM

## O=NN(CCCl)C(=O)NCCCl [BCNU, bis-chloroethyl-N-nitrosourea, reference compound]
[8]
  IC50: 40 µM

## CNc1ccc2ncnc(Nc3cccc(C)c3)c2c1 [FD110]
[1]
  IC50: ~0.05 µM

## CNN=Nc1ccc2ncnc(Nc3cccc(C)c3)c2c1 [SMA41]
[2]; A431, 30 min and 2 h exposure
  concentration range with significant comet tail moment / DNA damage: 6 to 25 µM and 6.25 to 25 µM
[2]
  DNA damage (comet tail moment): capable of inducing DNA damage in a dose-dependent manner
[2]; A431, 2 h
  concentration range with nuclear condensation: 25 to 100 µM
[3]; 72 h continuous exposure, SRB, A431, read-out: IC50 growth inhibition
  IC50: ~30 µM
[3]; Homo sapiens, A-431, 2 h exposure then 72 h recovery in drug-free medium, SRB, A431, read-out: IC50 growth inhibition
  IC50: 36 µM
[3]; [16]
  IC50: 36 µM
[9]
  IC50: 4 µM
[12]
  half-life: ~30 min

## COCCNN=Nc1ccc2ncnc(Nc3cccc(C)c3)c2c1 [E R1=MeOCH2CH2—]
[1]
  IC50: 0.196 ± 0.031 µM

## CC(=O)OCOC(c1ccc2ccccc2c1)P(=O)(OCOC(C)=O)OCOC(C)=O (centres unmarked) [HNPMA-(AM)3]
[13]
  IC50: 100 µM
